Here are results for 1 compound from patent publication US7189351B2, “D-tagatose as an anti-biofilm agent” (priority 2001, dated 2007).

Assay [1] deals with coaggregating pairs of oral isolates (early and late colonizers). The assay can be described thus: reversal of coaggregation among fifteen oral isolates (overall). Format: cell-based, bacterial strains of human gingival crevice origin. On the procedure:
(§1) Fifteen oral isolates, including both early colonizers (Streptococcus and Actinomyces) and late colonizers (Fusobacterium, Porphyromonas, Prevotella, Veillonella, Capnocytophaga, and Actinobacillus), were tested for their ability to coaggregate with each other, followed by testing for the reversal of coaggregation by the addition of D-tagatose. Bacterial strains used were of human gingival crevice origin. The coaggregation was examined visually by a scoring system ranging from 0 for no visible coaggregation to 4 for maximum coaggregation [Cisar J. O., Kolenbrander P. E., and McIntire F. C., “Specificity of coaggregation reactions between human oral streptococci and strains of Actinomyces viscosus or Actinomyces naeslundii”, Infect. Immun., 24:742–752. 1979]. D-Tagatose, at a concentration of less than 750 mM, completely reversed the coaggregation of 17 (60%) of 28 strong coaggregating pairs (with a coaggregation score of 2 or higher) tested. […] These D-tagatose sensitive coaggregations were D-galactose reversible as well.
(§2) Pairs of various species of oral bacteria were tested for coaggregation, and for reversal of coaggregation when D-tagatose or D-galactose was administered.

Assay [2] has as its system Veillonella atypica PK1910/Streptococcus oralis C104. The assay can be described thus: reversal of coaggregation, visual score. The note with it: pair PK1910/C104; sugar 200 mM; water score 3; scale 0 no visible to 4 maximum coaggregation. The class given is cell-based. As to the method: as §1, §2
Assay [3] has as its system Streptococcus morbillorum PK509/Prevotella loescheii PK1295. Description: reversal of coaggregation, visual score. The note with it: pair PK509/PK1295; sugar 600 mM; water score 2; scale 0 no visible to 4 maximum coaggregation. The class given is cell-based. On the procedure: as §1, §2
The subject of assay [4] is Streptococcus morbillorum PK509/Veillonella atypica PK1910. Description: reversal of coaggregation, visual score. The following applies: pair PK509/PK1910; sugar 400 mM; water score 2; scale 0 no visible to 4 maximum coaggregation. The class given is cell-based. As to the method:
as §1, §2

Assay [5] deals with Fusobacterium nucleatum PK1594/Veillonella atypica PK1910. The assay can be described thus: reversal of coaggregation, visual score. The class given is cell-based. The following applies: pair PK1594/PK1910; sugar 200 mM; water score 3; scale 0 no visible to 4 maximum coaggregation. On the procedure: as §1, §2
Assay [6] concerns Streptococcus morbillorum PK509/Streptococcus oralis SO34. Description: reversal of coaggregation, visual score. The following applies: pair PK509/SO34; sugar 400 mM; water score 2; scale 0 no visible to 4 maximum coaggregation. The class given is cell-based. As to the method: as §1, §2
Assay [7] deals with Prevotella loescheii PK1295/Streptococcus mitis J22. The assay can be described thus: reversal of coaggregation, visual score. The following applies: pair PK1295/J22; sugar 750 mM; water score 4; scale 0 no visible to 4 maximum coaggregation. The class given is cell-based. On the procedure: as §1, §2
The subject of assay [8] is Fusobacterium nucleatum PK1594/Porphyromonas gingivalis PK1924. The assay can be described thus: reversal of coaggregation, visual score. Format: cell-based. The following applies: pair PK1594/PK1924; sugar 400 mM; water score 4; scale 0 no visible to 4 maximum coaggregation. On the procedure:
as §1, §2

Assay [9] deals with Fusobacterium nucleatum PK1594/Actinobacillus actinomycetemcomitans JP2. The assay can be described thus: reversal of coaggregation, visual score. Format: cell-based. The following applies: pair PK1594/JP2; sugar 600 mM; water score 3; scale 0 no visible to 4 maximum coaggregation. On the procedure: as §1, §2
Assay [10] relates to Streptococcus morbillorum PK509/Streptococcus oralis C104. Description: reversal of coaggregation, visual score. Format: cell-based. The note with it: pair PK509/C104; sugar 750 mM; water score 3; scale 0 no visible to 4 maximum coaggregation. As to the method: as §1, §2
Assay [11] has as its system Actinomyces naeslundii PK29/Streptococcus oralis C104. Description: reversal of coaggregation, visual score. Format: cell-based. The following applies: pair PK29/C104; sugar 750 mM; water score 4; scale 0 no visible to 4 maximum coaggregation. As to the method:
as §1, §2

Assay [12] relates to Veillonella atypica PK1910/Streptococcus oralis SO34. The assay can be described thus: reversal of coaggregation, visual score. Format: cell-based. The following applies: pair PK1910/SO34; sugar 200 mM; water score 3; scale 0 no visible to 4 maximum coaggregation. As to the method: as §1, §2
The test system of assay [13] is Actinomyces naeslundii PK29/Streptococcus oralis SO34. Description: reversal of coaggregation, visual score. The class given is cell-based. The following applies: pair PK29/SO34; sugar 750 mM; water score 4; scale 0 no visible to 4 maximum coaggregation. As to the method: as §1, §2
Assay [14] has as its system Actinomyces naeslundii PK29/Streptococcus mitis J22. The assay can be described thus: reversal of coaggregation, visual score. The class given is cell-based. The following applies: pair PK29/J22; sugar 750 mM; water score 4; scale 0 no visible to 4 maximum coaggregation. As to the method:
as §1, §2

Assay [15] deals with Actinomyces naeslundii PK947/Streptococcus mitis J22. Description: reversal of coaggregation, visual score. The class given is cell-based. The note with it: pair PK947/J22; sugar 200 mM; water score 2; scale 0 no visible to 4 maximum coaggregation. On the procedure: as §1, §2
Assay [16] deals with Actinomyces naeslundii PK29/Streptococcus morbillorum PK509. Description: reversal of coaggregation, visual score. The following applies: pair PK29/PK509; sugar 200 mM; water score 2; scale 0 no visible to 4 maximum coaggregation. The class given is cell-based. As to the method:
as §1, §2

Assay [17] has as its system Actinomyces naeslundii PK947/Streptococcus oralis SO34. Description: reversal of coaggregation, visual score. The class given is cell-based. The note with it: pair PK947/SO34; sugar 200 mM; water score 3; scale 0 no visible to 4 maximum coaggregation. As to the method: as §1, §2
The subject of assay [18] is Actinomyces naeslundii PK947/Streptococcus oralis C104. Description: reversal of coaggregation, visual score. The class given is cell-based. The note with it: pair PK947/C104; sugar 200 mM; water score 2; scale 0 no visible to 4 maximum coaggregation. As to the method: as §1, §2
Assay [19] relates to F. nucleatum PK1594 and P. gingivalis PK1924. Description: phase-contrast photomicrographs of coaggregation. Format: cell-based, Fusobacterium nucleatum; Porphyromonas gingivalis. The following applies: 400 mM final concentration.
Assay [20] relates to Prevotella loescheii PK1295/Streptococcus oralis SO34. Description: reversal of coaggregation, visual score. The class given is cell-based. The following applies: pair PK1295/SO34; sugar 750 mM; water score 4; scale 0 no visible to 4 maximum coaggregation. On the procedure: as §1, §2
Assay [21] has as its system Prevotella loescheii PK1295/Streptococcus oralis C104. The assay can be described thus: reversal of coaggregation, visual score. Format: cell-based. The note with it: pair PK1295/C104; sugar 750 mM; water score 4; scale 0 no visible to 4 maximum coaggregation. On the procedure:
as §1, §2

As to `OC[C@@H](O)[C@@H](O)[C@H](O)[C@@H](O)CO` [D-Sorbitol], the “plaque reversibility, comparison of Table 2” value in assay [1] (D-tagatose and D-sorbitol at somewhat higher concentrations than D-galactose) was “markedly inferior”. Further, the “effect on the coaggregating pairs tested” value in assay [1] (in contrast to D-tagatose) is given as “little or no effect”. Moreover, the coaggregation score in assay [2] is reported as 1; in assay [3], 0; in assay [4], 0; in assay [5], 1; in [6] it was 1; in assay [7], 2. Besides, the coaggregation score in assay [8] is reported as 3; in assay [9], 2; in assay [10] it was 1; in assay [11], 4; in assay [12], 1; in assay [13] it was 4. In addition, the coaggregation score in assay [14] was determined as 4; in assay [15] it was 2; in assay [16] it was 2; in assay [17] it was 2; in [18] it was 1; in assay [20] it was 1. The coaggregation score in assay [21] was 2. In addition, in [19], the “dissociation of coaggregate clumps” value is “did not dissociate the clumps”.
